Measurements reported in US20100273895A1, “FORMULATIONS OF CANNABIDIOL AND PRODRUGS OF CANNABIDIOL AND METHODS OF USING THE SAME” (AllTranz Inc., priority 2009, published 2010).

Assay: CBD accelerated stability study at 40° C.
Type: physicochemical
Description: In order to assess the stability of cannabidiol formulations, the pH rate profiles over a range of probable pHs were studied. The rate profile with the lowest Kdeg would be desirable in order to ensure a two-year shelf life for a cannabidiol gel. The pH ranges studied were 4.0, 5.0, 5.5, 6.0, 6.5 and 7.0 prepared with either an acetate (0.01M: pH 4.0, 5.0 and 5.5) or phosphate (0.01 M: pH 6.0, 6.5 and 7.0) buffer system and maintained at an ionic strength of 0.154 M with NaCl at 40° C. CBD was prepared at 1 mg/mL and analyzed initially at a theoretical 10 μg/ml concentration. The results of these studies appear in FIGS. 13 and 14.
Additional stability studies were conducted with CBD synthesized by alternate routes. […] Over sixty-five days, the purity of CBD is still greater than 99%.

[1] = sixty-five day accelerated stability study at 40° C.

## C=C(C)[C@@H]1CCC(C)=C[C@H]1c1c(O)cc(CCCCC)cc1O [CBD, cannabidiol]
65 days in a 40° C. chamber
  28.9 min peak as share of the total area compared to the CBD peak: approximately 0.74%
Over sixty-five days
  purity of CBD: greater than 99%
[1]
  degradation: no significant degradation
  purity remaining: > 98%
